Earlier results, collected in Sander's compilation of Henry's law constants (doi:10.1021/je900477x).
“And” between values parts separate entries of the source, which are not always exact repeats. Identical values can stand only once.

Assay: Henry solubility constant Hcp at 298.15 K (mol/(m3 Pa))
Details: reference: Ma et al. (2010b); cited value

Row | Structure (SMILES) | Henry solubility constant Hcp
1 | c1ccc2c(c1)Cc1ccccc1-2 [2,3-benzindene] | 0.11
2 | c1cc2c3c(cccc3c1)CC2 [acenaphthene] | 0.072 and 0.07
3 | C1=Cc2cccc3cccc1c23 [acenaphthylene] | 0.082 and 0.1
4 | c1ccc2cc3ccccc3cc2c1 [anthracene] | 0.2
5 | c1ccc2c(c1)cc1ccc3cccc4ccc2c1c34 [benzo[a]pyrene] | 20 and 13
6 | c1ccc2c(c1)-c1cccc3cccc-2c13 [benzo[jk]fluorene] | 0.69 and 0.75
7 | c1ccc2cc3c(cc2c1)-c1cccc2cccc-3c12 [benzo[k]fluoranthene] | 17 and 18

The remaining lines, values ahead:

Row | Henry solubility constant Hcp | Structure (SMILES)
8 | 15 | c1ccc2c(c1)-c1cccc3c1c-2cc1ccccc13 [benzo[b]fluoranthene]
9 | 30 and 24 | c1cc2ccc3ccc4ccc5cccc6c(c1)c2c3c4c56 [benzo[ghi]perylene]
10 | 2.3 and 2.7 | c1ccc2c(c1)ccc1c3ccccc3ccc21 [chrysene]
11 | 29 and 20 | c1ccc2c(c1)-c1ccc3ccc4cccc5cc-2c1c3c45 [indeno[1,2,3-cd]pyrene]
12 | 0.021 and 0.022 | c1ccc2ccccc2c1 [naphthalene]
13 | 0.23 | c1ccc2c(c1)ccc1ccccc12 [phenanthrene]
